One test has as its target BRM (Homo sapiens, UniProt P51531). The experiment in a line: ATPase catalytic activity assay (ADP-Glo), BRM. The following applies: 30 nM BRM, 400 μM ATP. In general terms: ADP-Glo first removes unused ATP, then detects ADP through luciferase.
BRM, sequence (P51531 whole entry): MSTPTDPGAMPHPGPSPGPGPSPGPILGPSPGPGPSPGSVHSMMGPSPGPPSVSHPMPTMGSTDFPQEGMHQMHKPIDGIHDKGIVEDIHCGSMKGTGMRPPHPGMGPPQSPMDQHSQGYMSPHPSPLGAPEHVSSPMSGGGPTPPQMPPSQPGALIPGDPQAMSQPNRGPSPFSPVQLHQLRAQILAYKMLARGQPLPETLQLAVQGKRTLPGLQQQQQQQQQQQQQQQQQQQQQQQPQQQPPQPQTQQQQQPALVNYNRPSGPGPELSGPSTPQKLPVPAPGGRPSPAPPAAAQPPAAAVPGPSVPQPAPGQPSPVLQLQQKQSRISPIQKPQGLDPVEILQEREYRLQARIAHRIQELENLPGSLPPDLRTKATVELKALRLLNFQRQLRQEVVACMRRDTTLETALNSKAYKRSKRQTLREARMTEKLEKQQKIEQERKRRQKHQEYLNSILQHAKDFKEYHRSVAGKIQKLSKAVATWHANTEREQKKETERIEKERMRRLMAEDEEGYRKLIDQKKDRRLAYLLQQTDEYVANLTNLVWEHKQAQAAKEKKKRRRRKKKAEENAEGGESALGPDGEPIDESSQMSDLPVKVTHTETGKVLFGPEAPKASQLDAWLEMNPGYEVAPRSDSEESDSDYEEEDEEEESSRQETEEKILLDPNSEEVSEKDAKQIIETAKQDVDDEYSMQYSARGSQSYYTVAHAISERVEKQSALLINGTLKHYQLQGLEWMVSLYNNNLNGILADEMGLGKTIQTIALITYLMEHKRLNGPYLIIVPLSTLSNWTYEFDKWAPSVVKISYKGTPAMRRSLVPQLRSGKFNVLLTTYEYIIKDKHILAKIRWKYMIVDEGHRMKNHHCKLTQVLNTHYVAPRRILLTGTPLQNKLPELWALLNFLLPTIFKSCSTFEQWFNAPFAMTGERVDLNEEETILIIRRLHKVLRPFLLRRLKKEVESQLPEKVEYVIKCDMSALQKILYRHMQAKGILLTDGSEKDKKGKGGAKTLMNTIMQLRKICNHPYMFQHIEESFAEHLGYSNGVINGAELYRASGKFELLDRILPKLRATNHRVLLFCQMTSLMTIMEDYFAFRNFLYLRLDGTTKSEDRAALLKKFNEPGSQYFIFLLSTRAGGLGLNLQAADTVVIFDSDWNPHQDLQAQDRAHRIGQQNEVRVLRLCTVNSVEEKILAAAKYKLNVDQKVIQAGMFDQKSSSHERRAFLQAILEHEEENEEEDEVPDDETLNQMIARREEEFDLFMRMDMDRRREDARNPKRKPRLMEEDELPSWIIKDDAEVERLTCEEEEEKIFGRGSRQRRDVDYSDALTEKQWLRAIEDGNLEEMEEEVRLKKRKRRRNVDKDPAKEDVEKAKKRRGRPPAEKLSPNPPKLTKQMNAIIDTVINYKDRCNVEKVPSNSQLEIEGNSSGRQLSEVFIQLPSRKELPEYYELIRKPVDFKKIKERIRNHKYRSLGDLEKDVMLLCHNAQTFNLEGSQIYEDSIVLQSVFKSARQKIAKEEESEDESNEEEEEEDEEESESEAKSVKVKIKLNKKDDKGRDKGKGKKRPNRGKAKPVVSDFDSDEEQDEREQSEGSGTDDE
With `C[C@@]1(C#N)COCc2ccc(C(=O)NCc3cc4nc(-c5ccc(N6CCC6)cc5)ccc4cn3)cc21` [Compound 125], the “BRM Max % Inhibition” value was determined as 98%.

For `COc1ccccc1-c1cnc2cnc(CNC(=O)c3ccc4c(c3)[C@](C)(F)COC4)cc2n1` [Compound 256], the “BRM Max % Inhibition” value was found to be 98%.

As to `CN(C)c1ncc(-c2ccc3cnc(CNC(=O)c4ccc5c(c4)[C@](C)(C#N)COC5)cc3n2)cn1` [Compound 472], the “BRM Max % Inhibition” value was found to be 86%.

Take `C[C@@]1(C#N)COCc2ccc(C(=O)NCc3cc(OCc4ccccn4)ccn3)cc21` [Compound 36]: the “BRM Max % Inhibition” value came out at 64%.

`Cn1c(C(F)F)cc2c(-c3ccc4cnc(CNC(=O)c5ccc6c(c5)[C@](C)(C#N)COC6)cc4n3)cccc21` [Compound 139]: the “BRM Max % Inhibition” value is 100%.

Consider `C[C@@]1(C#N)COCc2ccc(C(=O)NCc3cc4nc(-c5cccc6c5ccn6CC(F)F)ccc4cn3)cc21` [Compound 147], for which the “BRM Max % Inhibition” value stood at 101%.

Consider `C[C@@]1(C#N)COCc2ccc(C(=O)NCc3cc(C4CCN(c5ccccc5)C4)ccn3)cc21` (stereo partly shown) [Compound 62], for which the “BRM Max % Inhibition” value is reported as 90%.

Regarding `COCCC(=O)N1CCN(c2cccc(-c3ccc4cnc(CNC(=O)c5ccc6c(c5)[C@](C)(C#N)COC6)cc4n3)n2)CC1` [Compound 288], the “BRM Max % Inhibition” value is listed as 101%.

For `Cc1cc(-c2ccc3cnc(CNC(=O)c4ccc5c(c4)[C@](C)(C#N)COC5)cc3n2)n[nH]1` [Compound 264], the “BRM Max % Inhibition” value was determined as 98%.

Turning to `C[C@@]1(C#N)COCc2ccc(C(=O)NCc3nccc(N4Cc5ccccc5C4)c3F)cc21` [Compound 68], the “BRM Max % Inhibition” value is given as 98%.

On to `Cc1cnn(-c2ccc3cnc(CNC(=O)c4ccc5c(c4)[C@](C)(C#N)COC5)cc3n2)c1` [Compound 505], for which the “BRM Max % Inhibition” value came to 96%.

Consider `COc1ccc(F)cc1-c1ccc2cnc(CNC(=O)c3ccc4c(c3)[C@](C)(C#N)COC4)cc2n1` [Compound 517], for which the “BRM Max % Inhibition” value came out at 98%.

As for `C[C@@]1(F)COCc2ccc(C(=O)NCc3cc4nc(-c5cccc(N=S(C)(C)=O)n5)ccc4cn3)cc21` [Compound 273], the “BRM Max % Inhibition” value was found to be 98%.

Staying with this test, now noted: BRM ATPase: IC50 (uM), 30 nM BRM, 400 μM ATP.
The IC50 is the concentration needed to halve the response being measured. On to `C[C@@]1(C#N)COCc2ccc(C(=O)NCc3cc4nc(-c5ccc(N6CCC6)cc5)ccc4cn3)cc21` [Compound 125], for which the half-maximal inhibitory concentration (IC50) was 0.1 to 0.5 µM.

Take `COc1ccccc1-c1cnc2cnc(CNC(=O)c3ccc4c(c3)[C@](C)(F)COC4)cc2n1` [Compound 256]: the IC50 was less than 0.1 µM.

Turning to `CN(C)c1ncc(-c2ccc3cnc(CNC(=O)c4ccc5c(c4)[C@](C)(C#N)COC5)cc3n2)cn1` [Compound 472], the IC50 lay within 0.1 to 0.5 µM.

As for `C[C@@]1(C#N)COCc2ccc(C(=O)NCc3cc(OCc4ccccn4)ccn3)cc21` [Compound 36], the IC50 is greater than 1 µM.

Take `Cn1c(C(F)F)cc2c(-c3ccc4cnc(CNC(=O)c5ccc6c(c5)[C@](C)(C#N)COC6)cc4n3)cccc21` [Compound 139]: the half-inhibitory concentration (IC50) is less than 0.1 µM.

The compound `C[C@@]1(C#N)COCc2ccc(C(=O)NCc3cc4nc(-c5cccc6c5ccn6CC(F)F)ccc4cn3)cc21` [Compound 147] registered a half-maximal inhibitory concentration (IC50) of less than 0.1 µM.

Regarding `C[C@@]1(C#N)COCc2ccc(C(=O)NCc3cc(C4CCN(c5ccccc5)C4)ccn3)cc21` (stereo partly shown) [Compound 62], the 50% inhibitory concentration (IC50) lay within 0.1 to 0.5 µM.

Take `COCCC(=O)N1CCN(c2cccc(-c3ccc4cnc(CNC(=O)c5ccc6c(c5)[C@](C)(C#N)COC6)cc4n3)n2)CC1` [Compound 288]: the IC50 was less than 0.1 µM.

In turn, `Cc1cc(-c2ccc3cnc(CNC(=O)c4ccc5c(c4)[C@](C)(C#N)COC5)cc3n2)n[nH]1` [Compound 264] had an IC50 of 0.1 to 0.5 µM.

For `C[C@@]1(C#N)COCc2ccc(C(=O)NCc3nccc(N4Cc5ccccc5C4)c3F)cc21` [Compound 68], the IC50 is less than 0.1 µM.

Consider `Cc1cnn(-c2ccc3cnc(CNC(=O)c4ccc5c(c4)[C@](C)(C#N)COC5)cc3n2)c1` [Compound 505], for which the IC50 was in the range of 0.1 to 0.5 µM.

Compound `COc1ccc(F)cc1-c1ccc2cnc(CNC(=O)c3ccc4c(c3)[C@](C)(C#N)COC4)cc2n1` [Compound 517] gave an IC50 of less than 0.1 µM.

Compound `C[C@@]1(F)COCc2ccc(C(=O)NCc3cc4nc(-c5cccc(N=S(C)(C)=O)n5)ccc4cn3)cc21` [Compound 273] had an IC50 of 0.1 to 0.5 µM.

The target of a further test is BRG-1 (Homo sapiens, UniProt P51532). Kind of test: ATPase catalytic activity assay (ADP-Glo), BRG-1.
BRG-1, sequence (P51532 whole entry): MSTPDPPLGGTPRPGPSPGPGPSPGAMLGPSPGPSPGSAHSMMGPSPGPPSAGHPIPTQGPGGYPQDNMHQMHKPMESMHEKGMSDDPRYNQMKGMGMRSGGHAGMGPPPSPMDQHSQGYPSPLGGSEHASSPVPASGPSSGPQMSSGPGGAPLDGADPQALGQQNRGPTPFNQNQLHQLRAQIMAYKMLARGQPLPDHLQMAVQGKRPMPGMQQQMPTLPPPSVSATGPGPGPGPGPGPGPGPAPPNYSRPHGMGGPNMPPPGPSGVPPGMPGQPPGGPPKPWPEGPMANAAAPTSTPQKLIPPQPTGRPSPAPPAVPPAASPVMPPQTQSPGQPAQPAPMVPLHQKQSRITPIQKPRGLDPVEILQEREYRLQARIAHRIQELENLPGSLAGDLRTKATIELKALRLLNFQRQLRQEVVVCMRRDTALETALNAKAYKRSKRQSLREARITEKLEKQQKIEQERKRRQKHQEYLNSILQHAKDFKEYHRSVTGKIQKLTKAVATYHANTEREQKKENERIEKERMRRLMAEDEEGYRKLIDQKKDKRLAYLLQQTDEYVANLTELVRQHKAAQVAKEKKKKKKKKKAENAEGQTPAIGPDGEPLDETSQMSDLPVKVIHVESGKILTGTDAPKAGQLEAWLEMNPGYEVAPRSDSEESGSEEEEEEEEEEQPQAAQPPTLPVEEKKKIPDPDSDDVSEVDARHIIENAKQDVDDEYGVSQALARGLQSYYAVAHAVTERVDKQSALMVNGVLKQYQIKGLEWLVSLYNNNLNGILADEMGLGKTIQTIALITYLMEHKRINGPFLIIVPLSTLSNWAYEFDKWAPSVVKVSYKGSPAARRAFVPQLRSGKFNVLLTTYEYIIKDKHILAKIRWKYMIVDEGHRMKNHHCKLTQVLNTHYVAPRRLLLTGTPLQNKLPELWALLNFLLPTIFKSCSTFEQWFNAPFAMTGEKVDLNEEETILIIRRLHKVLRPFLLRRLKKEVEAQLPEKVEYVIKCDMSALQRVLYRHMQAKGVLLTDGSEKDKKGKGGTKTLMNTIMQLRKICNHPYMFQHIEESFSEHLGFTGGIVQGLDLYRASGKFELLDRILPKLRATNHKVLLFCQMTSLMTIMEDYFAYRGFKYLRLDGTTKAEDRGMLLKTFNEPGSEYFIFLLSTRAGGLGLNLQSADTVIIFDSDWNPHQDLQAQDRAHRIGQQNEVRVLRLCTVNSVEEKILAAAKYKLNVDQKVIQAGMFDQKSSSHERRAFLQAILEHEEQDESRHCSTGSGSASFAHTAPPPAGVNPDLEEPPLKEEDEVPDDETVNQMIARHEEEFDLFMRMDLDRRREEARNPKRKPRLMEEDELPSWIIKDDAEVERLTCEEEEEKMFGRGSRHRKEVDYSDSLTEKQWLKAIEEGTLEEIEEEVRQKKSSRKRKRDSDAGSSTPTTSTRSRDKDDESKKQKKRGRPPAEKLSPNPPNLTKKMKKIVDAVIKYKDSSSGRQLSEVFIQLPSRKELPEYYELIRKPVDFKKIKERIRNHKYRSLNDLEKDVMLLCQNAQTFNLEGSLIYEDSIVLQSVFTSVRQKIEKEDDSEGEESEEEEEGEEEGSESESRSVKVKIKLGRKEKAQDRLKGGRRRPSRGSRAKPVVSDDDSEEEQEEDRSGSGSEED
Conditions: not given
As for `C[C@@]1(C#N)COCc2ccc(C(=O)NCc3cc4nc(-c5ccc(N6CCC6)cc5)ccc4cn3)cc21` [Compound 125], the IC50 fell in the range of 500 to 1000 nM.

Turning to `COc1ccccc1-c1cnc2cnc(CNC(=O)c3ccc4c(c3)[C@](C)(F)COC4)cc2n1` [Compound 256], the 50% inhibitory concentration (IC50) is 500 to 1000 nM.

`CN(C)c1ncc(-c2ccc3cnc(CNC(=O)c4ccc5c(c4)[C@](C)(C#N)COC5)cc3n2)cn1` [Compound 472] registered an IC50 greater than 1000 nM.

In the case of `C[C@@]1(C#N)COCc2ccc(C(=O)NCc3cc(OCc4ccccn4)ccn3)cc21` [Compound 36], the IC50 is greater than 1000 nM.

`Cn1c(C(F)F)cc2c(-c3ccc4cnc(CNC(=O)c5ccc6c(c5)[C@](C)(C#N)COC6)cc4n3)cccc21` [Compound 139] registered an IC50 of 100 to 500 nM.

Regarding `C[C@@]1(C#N)COCc2ccc(C(=O)NCc3cc4nc(-c5cccc6c5ccn6CC(F)F)ccc4cn3)cc21` [Compound 147], the IC50 fell in the range of 100 to 500 nM.

With `C[C@@]1(C#N)COCc2ccc(C(=O)NCc3cc(C4CCN(c5ccccc5)C4)ccn3)cc21` (stereo partly shown) [Compound 62], the IC50 is greater than 1000 nM.

In turn, `COCCC(=O)N1CCN(c2cccc(-c3ccc4cnc(CNC(=O)c5ccc6c(c5)[C@](C)(C#N)COC6)cc4n3)n2)CC1` [Compound 288] yielded an IC50 of 100 to 500 nM.

As for `Cc1cc(-c2ccc3cnc(CNC(=O)c4ccc5c(c4)[C@](C)(C#N)COC5)cc3n2)n[nH]1` [Compound 264], the IC50 is 500 to 1000 nM.

Regarding `C[C@@]1(C#N)COCc2ccc(C(=O)NCc3nccc(N4Cc5ccccc5C4)c3F)cc21` [Compound 68], the half-maximal inhibitory concentration (IC50) was 100 to 500 nM.

`Cc1cnn(-c2ccc3cnc(CNC(=O)c4ccc5c(c4)[C@](C)(C#N)COC5)cc3n2)c1` [Compound 505] displayed an IC50 of 500 to 1000 nM.

As to `COc1ccc(F)cc1-c1ccc2cnc(CNC(=O)c3ccc4c(c3)[C@](C)(C#N)COC4)cc2n1` [Compound 517], the IC50 is 100 to 500 nM.

`C[C@@]1(F)COCc2ccc(C(=O)NCc3cc4nc(-c5cccc(N=S(C)(C)=O)n5)ccc4cn3)cc21` [Compound 273]: the IC50 lay within 500 to 1000 nM.

The test is the same for the next values; noted with them: 1 h, read-out: BRG1 Max % Inhibition, ADP-Glo, 30 nM BRG-1, 400 μM ATP.
On to `C[C@@]1(C#N)COCc2ccc(C(=O)NCc3cc4nc(-c5ccc(N6CCC6)cc5)ccc4cn3)cc21` [Compound 125], for which the Emax was found to be 86%.

In the case of `COc1ccccc1-c1cnc2cnc(CNC(=O)c3ccc4c(c3)[C@](C)(F)COC4)cc2n1` [Compound 256], the Emax is 76%.

With `CN(C)c1ncc(-c2ccc3cnc(CNC(=O)c4ccc5c(c4)[C@](C)(C#N)COC5)cc3n2)cn1` [Compound 472], the Emax stood at 51%.

For `C[C@@]1(C#N)COCc2ccc(C(=O)NCc3cc(OCc4ccccn4)ccn3)cc21` [Compound 36], the Emax came to 44%.

Take `Cn1c(C(F)F)cc2c(-c3ccc4cnc(CNC(=O)c5ccc6c(c5)[C@](C)(C#N)COC6)cc4n3)cccc21` [Compound 139]: the Emax was 94%.

For `C[C@@]1(C#N)COCc2ccc(C(=O)NCc3cc4nc(-c5cccc6c5ccn6CC(F)F)ccc4cn3)cc21` [Compound 147], the Emax amounted to 90%.

Take `C[C@@]1(C#N)COCc2ccc(C(=O)NCc3cc(C4CCN(c5ccccc5)C4)ccn3)cc21` (stereo partly shown) [Compound 62]: the Emax is 42%.

Take `COCCC(=O)N1CCN(c2cccc(-c3ccc4cnc(CNC(=O)c5ccc6c(c5)[C@](C)(C#N)COC6)cc4n3)n2)CC1` [Compound 288]: the Emax is 98%.

Consider `Cc1cc(-c2ccc3cnc(CNC(=O)c4ccc5c(c4)[C@](C)(C#N)COC5)cc3n2)n[nH]1` [Compound 264], for which the Emax stood at 72%.

For the compound `C[C@@]1(C#N)COCc2ccc(C(=O)NCc3nccc(N4Cc5ccccc5C4)c3F)cc21` [Compound 68], the Emax was 91%.

As to `Cc1cnn(-c2ccc3cnc(CNC(=O)c4ccc5c(c4)[C@](C)(C#N)COC5)cc3n2)c1` [Compound 505], the Emax is 72%.

Take `COc1ccc(F)cc1-c1ccc2cnc(CNC(=O)c3ccc4c(c3)[C@](C)(C#N)COC4)cc2n1` [Compound 517]: the Emax was 88%.

Turning to `C[C@@]1(F)COCc2ccc(C(=O)NCc3cc4nc(-c5cccc(N=S(C)(C)=O)n5)ccc4cn3)cc21` [Compound 273], the Emax was 64%.

(Values after patent publication US12441726B2, “Compounds and uses thereof” (Foghorn Therapeutics Inc., priority 2020, dated 2025).)
